Measurements: ChEMBL document CHEMBL4507297, “Data for DCP probe PF-04457845” (2021)

Legend:
[1] = test system: Tyrosine-protein kinase ABL1 (Homo sapiens), P00519 [T315I]; settings: Compound concentration 1000.0 nM
[2] = molecular target: Activin receptor type-2A (Homo sapiens) (UniProt P27037); settings: Compound concentration 1000.0 nM
[3] = molecular target: 5'-AMP-activated protein kinase catalytic subunit alpha-1 (Homo sapiens) (UniProt Q13131); settings: Compound concentration 1000.0 nM
[4] = molecular target: BMP-2-inducible protein kinase (Homo sapiens) (UniProt Q9NSY1); settings: Compound concentration 1000.0 nM
[5] = molecular target: Bone morphogenetic protein receptor type-1B (Homo sapiens) (UniProt O00238); settings: Compound concentration 1000.0 nM
[6] = molecular target: Bone morphogenetic protein receptor type-2 (Homo sapiens) (UniProt Q13873); settings: Compound concentration 1000.0 nM
[7] = molecular target: Cytoplasmic tyrosine-protein kinase BMX (Homo sapiens) (UniProt P51813); settings: Compound concentration 1000.0 nM
[8] = molecular target: Mitotic checkpoint serine/threonine-protein kinase BUB1 (Homo sapiens) (UniProt O43683); settings: Compound concentration 1000.0 nM
[9] = molecular target: Cyclin-dependent kinase 11A (Homo sapiens) (UniProt Q9UQ88); settings: Compound concentration 1000.0 nM
[10] = molecular target: Cyclin-dependent kinase-like 5 (Homo sapiens) (UniProt O76039); settings: Compound concentration 1000.0 nM
[11] = molecular target: Serine/threonine-protein kinase Chk1 (Homo sapiens) (UniProt O14757); settings: Compound concentration 1000.0 nM
[12] = molecular target: Tyrosine-protein kinase CSK (Homo sapiens) (UniProt P41240); settings: Compound concentration 1000.0 nM
[13] = molecular target: Death-associated protein kinase 3 (Homo sapiens) (UniProt O43293); settings: Compound concentration 1000.0 nM
[14] = molecular target: Serine/threonine-protein kinase 17B (Homo sapiens) (UniProt O94768); settings: Compound concentration 1000.0 nM
Sequence of Serine/threonine-protein kinase 17B (Homo sapiens) (O94768 whole entry): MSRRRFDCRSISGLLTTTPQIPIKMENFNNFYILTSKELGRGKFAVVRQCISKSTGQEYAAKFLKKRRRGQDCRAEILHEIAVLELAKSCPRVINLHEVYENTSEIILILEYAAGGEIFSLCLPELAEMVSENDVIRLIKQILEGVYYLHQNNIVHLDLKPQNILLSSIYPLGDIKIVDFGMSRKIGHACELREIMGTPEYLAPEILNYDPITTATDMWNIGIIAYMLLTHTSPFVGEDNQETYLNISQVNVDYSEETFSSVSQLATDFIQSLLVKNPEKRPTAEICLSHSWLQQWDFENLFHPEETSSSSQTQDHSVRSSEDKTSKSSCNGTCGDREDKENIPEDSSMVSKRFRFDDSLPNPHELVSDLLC

[15] = test system: Epidermal growth factor receptor (Homo sapiens), P00533 [UNDEFINED MUTATION]; settings: Compound concentration 1000.0 nM
[16] = molecular target: Ephrin type-A receptor 4 (Homo sapiens) (UniProt P54764); settings: Compound concentration 1000.0 nM
[17] = molecular target: Fibroblast growth factor receptor 2 (Homo sapiens) (UniProt P21802); settings: Compound concentration 1000.0 nM
[18] = molecular target: Insulin receptor-related protein (Homo sapiens) (UniProt P14616); settings: Compound concentration 1000.0 nM
[19] = molecular target: Mast/stem cell growth factor receptor Kit (Homo sapiens) (UniProt P10721); settings: Compound concentration 1000.0 nM
[20] = molecular target: Serine/threonine-protein kinase LATS2 (Homo sapiens) (UniProt Q9NRM7); settings: Compound concentration 1000.0 nM
[21] = molecular target: Dual specificity mitogen-activated protein kinase kinase 6 (Homo sapiens) (UniProt P52564); settings: Compound concentration 1000.0 nM
[22] = molecular target: Maternal embryonic leucine zipper kinase (Homo sapiens) (UniProt Q14680); settings: Compound concentration 1000.0 nM
Sequence of Maternal embryonic leucine zipper kinase (Homo sapiens) (Q14680 whole entry, looked up): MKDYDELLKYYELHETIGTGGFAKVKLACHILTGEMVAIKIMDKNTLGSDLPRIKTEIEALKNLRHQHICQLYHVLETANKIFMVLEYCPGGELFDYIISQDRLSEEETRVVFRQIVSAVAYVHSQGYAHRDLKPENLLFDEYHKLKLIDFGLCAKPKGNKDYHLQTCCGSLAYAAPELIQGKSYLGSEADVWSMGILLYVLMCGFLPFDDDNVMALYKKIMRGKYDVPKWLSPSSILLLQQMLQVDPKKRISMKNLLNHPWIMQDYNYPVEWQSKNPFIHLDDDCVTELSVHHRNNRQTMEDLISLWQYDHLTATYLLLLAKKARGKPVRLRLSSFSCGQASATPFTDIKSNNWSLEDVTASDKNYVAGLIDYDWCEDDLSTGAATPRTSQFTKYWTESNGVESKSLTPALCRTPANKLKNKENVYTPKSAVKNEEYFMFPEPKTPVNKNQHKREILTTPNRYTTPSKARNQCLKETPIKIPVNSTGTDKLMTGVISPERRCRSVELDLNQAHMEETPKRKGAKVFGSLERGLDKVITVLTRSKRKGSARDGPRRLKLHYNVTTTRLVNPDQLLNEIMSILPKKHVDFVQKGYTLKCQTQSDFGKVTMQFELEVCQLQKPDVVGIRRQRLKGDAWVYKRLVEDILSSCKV

[23] = molecular target: MAP kinase-interacting serine/threonine-protein kinase 2 (Homo sapiens) (UniProt Q9HBH9); settings: Compound concentration 1000.0 nM
[24] = molecular target: Mitogen-activated protein kinase kinase kinase 9 (Homo sapiens) (UniProt P80192); settings: Compound concentration 1000.0 nM
[25] = molecular target: Serine/threonine-protein kinase Nek2 (Homo sapiens) (UniProt P51955); settings: Compound concentration 1000.0 nM
[26] = molecular target: Serine/threonine-protein kinase Nek9 (Homo sapiens) (UniProt Q8TD19); settings: Compound concentration 1000.0 nM
[27] = molecular target: Serine/threonine-protein kinase NLK (Homo sapiens) (UniProt Q9UBE8); settings: Compound concentration 1000.0 nM
[28] = molecular target: Phosphatidylinositol 4-phosphate 3-kinase C2 domain-containing subunit beta (Homo sapiens) (UniProt O00750); settings: Compound concentration 1000.0 nM
[29] = test system: Phosphatidylinositol 4,5-bisphosphate 3-kinase catalytic subunit alpha isoform (Homo sapiens), P42336 [H1047Y]; settings: Compound concentration 1000.0 nM
[30] = molecular target: Phosphatidylinositol 4,5-bisphosphate 3-kinase catalytic subunit beta isoform (Homo sapiens) (UniProt P42338); settings: Compound concentration 1000.0 nM
Sequence of Phosphatidylinositol 4,5-bisphosphate 3-kinase catalytic subunit beta isoform (Homo sapiens) (P42338 whole entry, looked up, canonical isoform): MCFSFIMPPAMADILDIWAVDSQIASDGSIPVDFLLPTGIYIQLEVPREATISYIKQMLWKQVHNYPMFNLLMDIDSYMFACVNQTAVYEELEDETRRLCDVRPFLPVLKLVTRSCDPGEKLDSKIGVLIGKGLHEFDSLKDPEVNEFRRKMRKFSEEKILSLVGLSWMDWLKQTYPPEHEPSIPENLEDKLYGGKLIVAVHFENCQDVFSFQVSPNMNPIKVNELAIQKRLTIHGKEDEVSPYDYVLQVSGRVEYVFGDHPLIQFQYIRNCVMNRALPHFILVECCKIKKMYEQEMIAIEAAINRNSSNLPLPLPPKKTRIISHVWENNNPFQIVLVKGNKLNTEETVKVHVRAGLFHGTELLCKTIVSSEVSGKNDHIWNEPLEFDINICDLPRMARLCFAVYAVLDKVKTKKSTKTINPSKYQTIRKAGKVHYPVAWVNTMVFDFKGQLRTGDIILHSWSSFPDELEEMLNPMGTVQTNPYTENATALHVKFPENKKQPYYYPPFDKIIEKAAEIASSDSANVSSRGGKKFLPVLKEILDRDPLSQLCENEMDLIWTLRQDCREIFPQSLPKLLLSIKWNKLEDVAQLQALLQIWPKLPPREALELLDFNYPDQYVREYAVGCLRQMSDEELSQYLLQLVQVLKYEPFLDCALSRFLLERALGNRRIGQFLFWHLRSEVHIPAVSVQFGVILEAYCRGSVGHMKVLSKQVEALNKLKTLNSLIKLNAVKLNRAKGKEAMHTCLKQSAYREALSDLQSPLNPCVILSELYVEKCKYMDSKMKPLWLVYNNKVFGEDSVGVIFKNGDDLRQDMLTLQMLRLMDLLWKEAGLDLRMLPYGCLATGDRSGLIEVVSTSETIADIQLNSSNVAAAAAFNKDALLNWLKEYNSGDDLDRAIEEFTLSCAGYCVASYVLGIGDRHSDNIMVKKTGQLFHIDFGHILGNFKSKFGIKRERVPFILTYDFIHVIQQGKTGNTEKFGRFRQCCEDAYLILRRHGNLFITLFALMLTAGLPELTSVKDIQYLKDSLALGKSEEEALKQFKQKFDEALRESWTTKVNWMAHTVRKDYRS

[31] = molecular target: cAMP-dependent protein kinase catalytic subunit beta (Homo sapiens) (UniProt P22694); settings: Compound concentration 1000.0 nM
[32] = molecular target: Protein kinase C delta type (Homo sapiens) (UniProt Q05655); settings: Compound concentration 1000.0 nM
Sequence of Protein kinase C delta type (Homo sapiens) (Q05655 whole entry, looked up): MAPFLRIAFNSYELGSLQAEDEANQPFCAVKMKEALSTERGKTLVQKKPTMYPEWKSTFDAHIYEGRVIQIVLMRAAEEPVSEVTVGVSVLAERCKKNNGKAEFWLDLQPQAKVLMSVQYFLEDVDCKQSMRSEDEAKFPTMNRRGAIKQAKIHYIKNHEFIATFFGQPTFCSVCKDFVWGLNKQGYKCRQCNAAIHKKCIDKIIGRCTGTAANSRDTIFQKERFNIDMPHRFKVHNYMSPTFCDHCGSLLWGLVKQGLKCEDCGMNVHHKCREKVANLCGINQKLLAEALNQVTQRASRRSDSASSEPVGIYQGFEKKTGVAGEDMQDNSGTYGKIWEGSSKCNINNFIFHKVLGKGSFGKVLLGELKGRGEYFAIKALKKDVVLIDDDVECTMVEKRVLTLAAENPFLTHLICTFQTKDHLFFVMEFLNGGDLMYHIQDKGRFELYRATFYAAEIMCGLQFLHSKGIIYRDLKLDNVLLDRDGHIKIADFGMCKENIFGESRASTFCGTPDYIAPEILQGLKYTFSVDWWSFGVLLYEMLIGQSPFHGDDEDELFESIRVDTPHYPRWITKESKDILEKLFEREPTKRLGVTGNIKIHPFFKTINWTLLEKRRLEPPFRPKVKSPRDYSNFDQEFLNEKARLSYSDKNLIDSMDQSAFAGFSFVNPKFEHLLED

[33] = molecular target: Protein kinase C iota type (Homo sapiens) (UniProt P41743); settings: Compound concentration 1000.0 nM
[34] = molecular target: Serine/threonine-protein kinase RIO2 (Homo sapiens) (UniProt Q9BVS4); settings: Compound concentration 1000.0 nM
[35] = molecular target: Serine/threonine-protein kinase Sgk1 (Homo sapiens) (UniProt O00141); settings: Compound concentration 1000.0 nM
Sequence of Serine/threonine-protein kinase Sgk1 (Homo sapiens) (O00141 whole entry): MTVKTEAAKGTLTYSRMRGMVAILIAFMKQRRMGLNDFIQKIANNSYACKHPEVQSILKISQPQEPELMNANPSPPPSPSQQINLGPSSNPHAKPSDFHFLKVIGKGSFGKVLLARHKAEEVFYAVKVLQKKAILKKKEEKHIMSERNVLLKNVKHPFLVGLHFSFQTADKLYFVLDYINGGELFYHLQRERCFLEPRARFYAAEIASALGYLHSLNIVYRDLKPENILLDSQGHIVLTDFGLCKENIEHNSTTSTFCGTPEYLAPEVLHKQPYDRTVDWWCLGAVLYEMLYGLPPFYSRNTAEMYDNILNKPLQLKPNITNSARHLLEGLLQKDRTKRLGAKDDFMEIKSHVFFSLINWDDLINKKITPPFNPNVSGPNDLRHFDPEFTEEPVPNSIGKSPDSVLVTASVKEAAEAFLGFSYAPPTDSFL

[36] = molecular target: BDNF/NT-3 growth factors receptor (Homo sapiens) (UniProt Q16620); settings: Compound concentration 1000.0 nM
Sequence of BDNF/NT-3 growth factors receptor (Homo sapiens) (Q16620 32-822 limits assumed): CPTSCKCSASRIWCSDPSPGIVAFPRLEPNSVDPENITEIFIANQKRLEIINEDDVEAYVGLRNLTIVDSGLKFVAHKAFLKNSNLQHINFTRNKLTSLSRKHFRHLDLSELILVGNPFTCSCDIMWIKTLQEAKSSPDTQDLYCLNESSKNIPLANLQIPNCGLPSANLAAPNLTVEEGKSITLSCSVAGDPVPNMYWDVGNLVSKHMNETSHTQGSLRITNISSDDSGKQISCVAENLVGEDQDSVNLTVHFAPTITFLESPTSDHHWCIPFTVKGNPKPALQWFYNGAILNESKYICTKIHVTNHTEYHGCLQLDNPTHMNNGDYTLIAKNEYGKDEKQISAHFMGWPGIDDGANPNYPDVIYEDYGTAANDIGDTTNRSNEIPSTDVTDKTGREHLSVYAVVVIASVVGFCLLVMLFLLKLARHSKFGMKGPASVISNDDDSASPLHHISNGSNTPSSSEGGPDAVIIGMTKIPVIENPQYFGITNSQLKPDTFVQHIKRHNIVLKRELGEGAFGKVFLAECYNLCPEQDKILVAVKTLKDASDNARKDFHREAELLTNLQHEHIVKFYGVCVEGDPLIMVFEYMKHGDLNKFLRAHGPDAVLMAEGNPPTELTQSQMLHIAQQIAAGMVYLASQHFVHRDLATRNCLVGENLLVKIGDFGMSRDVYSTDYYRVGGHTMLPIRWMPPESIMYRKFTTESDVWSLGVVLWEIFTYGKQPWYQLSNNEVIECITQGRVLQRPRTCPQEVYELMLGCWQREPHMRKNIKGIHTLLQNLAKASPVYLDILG

[37] = molecular target: Wee1-like protein kinase 2 (Homo sapiens) (UniProt P0C1S8); settings: Compound concentration 1000.0 nM
[38] = molecular target: Serine/threonine-protein kinase 32A (Homo sapiens) (UniProt Q8WU08); settings: Compound concentration 1000.0 nM
Sequence of Serine/threonine-protein kinase 32A (Homo sapiens) (Q8WU08 whole entry): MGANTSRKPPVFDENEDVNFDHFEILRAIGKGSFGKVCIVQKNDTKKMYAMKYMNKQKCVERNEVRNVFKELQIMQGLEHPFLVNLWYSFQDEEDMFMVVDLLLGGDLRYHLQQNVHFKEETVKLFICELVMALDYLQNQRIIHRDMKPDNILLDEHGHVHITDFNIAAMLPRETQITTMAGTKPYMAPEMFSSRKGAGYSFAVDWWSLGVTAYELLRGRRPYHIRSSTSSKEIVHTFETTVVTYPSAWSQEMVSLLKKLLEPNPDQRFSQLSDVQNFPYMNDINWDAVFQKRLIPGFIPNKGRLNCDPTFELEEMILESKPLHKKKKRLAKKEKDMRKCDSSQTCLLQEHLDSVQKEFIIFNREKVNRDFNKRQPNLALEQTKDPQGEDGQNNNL

[39] = molecular target: Serine/threonine-protein kinase 32C (Homo sapiens) (UniProt Q86UX6); settings: Compound concentration 1000.0 nM
[40] = molecular target: Serine/threonine-protein kinase 25 (Homo sapiens) (UniProt O00506); settings: Compound concentration 1000.0 nM
[41] = molecular target: Tyrosine-protein kinase ZAP-70 (Homo sapiens) (UniProt P43403); settings: Compound concentration 1000.0 nM
[42] = molecular target: D(1A) dopamine receptor (Homo sapiens) (UniProt P21728); settings: Compound concentration 10.0 uM
Sequence of D(1A) dopamine receptor (Homo sapiens) (P21728 whole entry): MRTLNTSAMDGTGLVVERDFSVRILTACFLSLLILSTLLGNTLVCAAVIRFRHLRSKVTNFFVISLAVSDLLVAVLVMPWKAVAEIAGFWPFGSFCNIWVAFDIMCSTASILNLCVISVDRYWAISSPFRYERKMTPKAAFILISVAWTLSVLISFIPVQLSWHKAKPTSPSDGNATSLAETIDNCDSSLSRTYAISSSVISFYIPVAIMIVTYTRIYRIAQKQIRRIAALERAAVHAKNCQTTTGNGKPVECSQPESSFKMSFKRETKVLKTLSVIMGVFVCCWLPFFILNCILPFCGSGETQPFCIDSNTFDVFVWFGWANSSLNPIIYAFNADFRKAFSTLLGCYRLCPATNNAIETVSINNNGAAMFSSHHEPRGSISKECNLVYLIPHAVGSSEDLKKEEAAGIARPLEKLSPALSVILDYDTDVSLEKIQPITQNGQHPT

[43] = molecular target: D(4) dopamine receptor (Homo sapiens) (UniProt P21917); settings: Compound concentration 10.0 uM
[44] = molecular target: Mu-type opioid receptor (Homo sapiens) (UniProt P35372); settings: Compound concentration 10.0 uM
[45] = molecular target: Beta-1 adrenergic receptor (Homo sapiens) (UniProt P08588); settings: Compound concentration 10.0 uM

In the case of `O=C(Nc1cccnn1)N1CCC(=Cc2cccc(Oc3ccc(C(F)(F)F)cn3)c2)CC1`, the residual activity [1] was 76%, the residual activity [2] was 100% and the residual activity [3] was 88%. It also gave a residual activity [4] of 100%, a residual activity [5] of 88% and a residual activity [6] of 100%. It also gave a residual activity [7] of 71%, a residual activity [8] of 100% and a residual activity [9] of 82%. The residual activity [10] was 100%, the residual activity [11] was 78% and the residual activity [12] was 100%. For the same compound, the residual activity [13] was 79%, the residual activity [14] was 100% and the residual activity [15] was 73%. The residual activity [16] was 100%, the residual activity [17] was 96% and the residual activity [18] was 100%. It also gave a residual activity [19] of 81%, a residual activity [20] of 84% and a residual activity [21] of 100%. It also gave a residual activity [22] of 100%, a residual activity [23] of 100% and a residual activity [24] of 100%. The residual activity [25] was 100%, the residual activity [26] was 100% and the residual activity [27] was 100%. The residual activity [28] was 91%, the residual activity [29] was 82% and the residual activity [30] was 100%. For the same compound, the residual activity [31] was 100%, the residual activity [32] was 93% and the residual activity [33] was 81%. The residual activity [34] was 100%, the residual activity [35] was 100% and the residual activity [36] was 100%. It also gave a residual activity [37] of 77%, a residual activity [38] of 100% and a residual activity [39] of 100%. The residual activity [40] was 100%, the residual activity [41] was 100% and the inhibition [42] was -3.23%. The inhibition [43] was -6.93%, the inhibition [44] was 17.5% and the inhibition [45] was 16.5%.

In the case of `O=C(Nc1cccnn1)N1CC(C/C=C/c2cncc(Oc3ccc(C(F)(F)F)cn3)n2)C1`, the residual activity [1] was 80%, the residual activity [2] was 100% and the residual activity [3] was 100%. For the same compound, the residual activity [4] was 100%, the residual activity [5] was 91% and the residual activity [6] was 76%. It also gave a residual activity [7] of 100%, a residual activity [8] of 1.4% and a residual activity [9] of 100%. It also gave a residual activity [10] of 73%, a residual activity [11] of 100% and a residual activity [12] of 100%. The residual activity [13] was 100%, the residual activity [14] was 100% and the residual activity [15] was 85%. For the same compound, the residual activity [16] was 100%, the residual activity [17] was 100% and the residual activity [18] was 100%. The residual activity [19] was 80%, the residual activity [20] was 100% and the residual activity [21] was 100%. For the same compound, the residual activity [22] was 100%, the residual activity [23] was 77% and the residual activity [24] was 100%. For the same compound, the residual activity [25] was 100%, the residual activity [26] was 100% and the residual activity [27] was 100%. The residual activity [28] was 93%, the residual activity [29] was 100% and the residual activity [30] was 79%. For the same compound, the residual activity [31] was 100%, the residual activity [32] was 100% and the residual activity [33] was 96%. The residual activity [34] was 77%, the residual activity [35] was 85% and the residual activity [36] was 77%. For the same compound, the residual activity [37] was 100%, the residual activity [38] was 100% and the residual activity [39] was 100%. The residual activity [40] was 91%, the residual activity [41] was 90% and the inhibition [42] was 1.14%. For the same compound, the inhibition [43] was 12.3%, the inhibition [44] was 1.18% and the inhibition [45] was 1.97%.
